Experimental data: patent publication US8961944B2, “Use of delta-tocopheryl-carbohydrate as a depigmenting agent” (Pierre Fabre Dermo-Cosmetique, priority 2009, dated 2015)
Read-outs that look alike come from different tables or passages of the source.

How the values were obtained:
B16-F10 cells = assay: Inhibition of α-MSH-stimulated melanogenesis (intracellular melanin) in B16-F10 cells; format: cell-based; settings: for percent inhibition of intracellular melanin / inhibition at 50 µM: 50 μM; for percent inhibition of intracellular melanin / inhibition at 10 µM / inhibition at 50 µM: α-MSH (0.1 μM) stimulation; for inhibition at 10 µM / inhibition at 50 µM: Mus musculus, read-out: percent inhibition of intracellular melanin
Description: B16-F10 cells are inoculated in 96-well plates in DMEM (Dulbecco's Modified Eagle's Medium) supplemented with Foetal Calf Serum (FCS) and incubated for 24 hours at 37° C., 5% CO2. Melanogenesis is stimulated by α-MSH (0.1 μM) for 3 or 5 days. Each concentration of active substance is tested in triplicate. Total melanin and intracellular melanin dissolved in lysis buffer are then assayed by reading absorbance at 405 nm. Total proteins are assayed in the lysate according to protocol “SRD/TO/154/012” and the results are expressed in mg melanin/mg proteins. The percentage of activity is calculated as follows: % inhibition=[([…])/NMC]×100 NMC being the normalised mean of the control NMT being the normalised mean of the treated

[1] = compared with delta-tocopherol; cited from earlier work
glucocerebrosidase = molecular target: T1, glucocerebrosidase (Homo sapiens, UniProt P04062); settings: compared with reference derivative 4-methylumbelliferyl glucopyranoside; cited from earlier work
T1 sequence (P04062 40-536): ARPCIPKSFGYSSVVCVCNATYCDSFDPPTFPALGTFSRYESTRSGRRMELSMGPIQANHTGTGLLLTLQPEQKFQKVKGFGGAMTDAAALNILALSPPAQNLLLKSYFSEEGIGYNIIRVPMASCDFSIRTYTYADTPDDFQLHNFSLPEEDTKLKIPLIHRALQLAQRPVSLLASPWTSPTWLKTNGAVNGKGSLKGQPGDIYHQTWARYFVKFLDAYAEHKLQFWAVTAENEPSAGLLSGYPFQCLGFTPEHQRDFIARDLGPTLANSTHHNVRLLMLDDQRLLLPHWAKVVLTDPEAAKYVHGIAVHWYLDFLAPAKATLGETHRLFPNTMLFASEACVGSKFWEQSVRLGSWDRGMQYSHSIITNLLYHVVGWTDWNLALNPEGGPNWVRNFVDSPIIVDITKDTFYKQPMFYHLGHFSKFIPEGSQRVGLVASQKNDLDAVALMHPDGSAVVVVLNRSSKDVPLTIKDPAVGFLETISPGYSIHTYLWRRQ

Compound	percent inhibition of intracellular melanin (B16-F10 cells; 3 days) [%]	percent inhibition of intracellular melanin (B16-F10 cells; 5 days) [%]	antioxidant capacity [1]	inhibition at 10 µM (B16-F10 cells; B16-F10, 72 h, 3 days) [%]	inhibition at 50 µM (B16-F10 cells; B16-F10, 72 h, 3 days) [%]	inhibition at 10 µM (B16-F10 cells; B16-F10, 120 h, 5 days) [%]	inhibition at 50 µM (B16-F10 cells; B16-F10, 120 h, 5 days) [%]	depigmenting activity (B16-F10 cells; compared with delta-tocopherol (see example 1))	release of delta-tocopherol by enzymatic hydrolysis (glucocerebrosidase)
Cc1cc(O)cc2c1O[C@](C)(CCC[C@H](C)CCC[C@H](C)CCCC(C)C)CC2 [Delta-tocopherol, delta-tocopherol, reference compound]	41	48							
Cc1cc(O[C@@H]2O[C@H](CO)[C@@H](O)[C@H](O)[C@H]2O)cc2c1O[C@](C)(CCC[C@H](C)CCC[C@H](C)CCCC(C)C)CC2 [Delta-tocopheryl-glucopyranoside, delta-tocopheryl-glucopyranoside]			weak antioxidant capacity compared to that of delta-tocopherol	22	68	38	90	quite higher than that of delta-tocopherol	slowly releases delta-tocopherol, with lower kinetics than a reference derivative
